Article PMC6259751, “Investigating Spectrum of Biological Activity of 4- and 5-Chloro-2-hydroxy-N-[2-(arylamino)-1-alkyl-2-oxoethyl]benzamides” (Molecules, 2011)
pIC50: −log10 of the molar value. ≈ marks a conversion by molar mass, not a printed value. Where two headings read alike, the source gives them in different places.

Tests used:
[1] = system: Enterococcus sp. J 14365/08; test: In vitro antibacterial susceptibility testing (broth microdilution); settings: read-out: MIC EF
[2] = Lipophilicity determination by RP-HPLC (capacity factor k / log k); type: physicochemical; settings: C18 column, MeOH 70% / H2O 30%, isocratic
Experimental: Hydrophobicities (log P/Clog P) of compounds 8 and 9 were calculated using two commercially available programs (ChemOffice Ultra 10.0 and ACD/LogP) and measured by means of RP-HPLC determination of capacity factors k with subsequent calculation of log k. The procedure was performed under isocratic conditions with methanol as an organic modifier in the mobile phase using an end-capped non-polar C18 stationary RP column. The results are shown in Table 1 and illustrated in Figure 1.
A Waters Alliance 2695 XE HPLC separation module and a Waters Photodiode Array Detector 2996 (Waters Corp., Milford, MA, USA) were used. A Symmetry® C18 5 μm, 4.6 × 250 mm, Part No. WAT054275 (Waters Corp., Milford, MA, USA) chromatographic column was used. The HPLC separation process was monitored by Empower™ 2 Chromatography Data Software, Waters 2009 (Waters Corp., Milford, MA, USA). A mixture of MeOH p.a. (70%) and H2O-HPLC – Mili-Q Grade (30%) was used as a mobile phase. The total flow of the column was 1.0 mL/min, injection volume, 30 μL, column temperature, 30 °C and sample temperature, 10 °C. The detection wavelength of 210 nm was chosen. The KI methanolic solution was used for the dead time (tD) determination. Retention times (tR) were measured in minutes. The capacity factors k were calculated using the Empower™ 2 Chromatography Data Software according to formula k = (tR - tD)/tD, where tR is the retention time of the solute, whereas tD denotes the dead time obtained using an unretained analyte. Log k, calculated from the capacity factor k, is used as the lipophilicity index converted to log P scale.

[3] = system: Mycobacterium avium MA CNCTC My 330/88; test: In vitro antimycobacterial evaluation; type: cell-based; settings: IC90 value
[4] = system: photosynthetic electron transport (PET) in spinach chloroplasts; test: Inhibition of photosynthetic electron transport (PET) in spinach chloroplasts; type: biochemical, Spinacia oleracea L.; settings: DCPIP photoreduction
Experimental: Chloroplasts were prepared from spinach (Spinacia oleracea L.) according to Masarovicova and Kralova. The inhibition of photosynthetic electron transport (PET) in spinach chloroplasts was determined spectrophotometrically (Genesys 6, Thermo Scientific, USA), using an artificial electron acceptor 2,6-dichlorophenol-indophenol (DCIPP) according to Kralova et al., and the rate of photosynthetic electron transport was monitored as a photoreduction of DCPIP. The measurements were carried out in phosphate buffer (0.02 mol/L, pH 7.2) containing sucrose (0.4 mol/L), MgCl2 (0.005 mol/L) and NaCl (0.015 mol/L). The chlorophyll content was 30 mg/L in these experiments and the samples were irradiated (~100 W/m^2) from 10 cm distance with a halogen lamp (250 W) using a 4 cm water filter to prevent warming of the samples. The studied compounds were dissolved in DMSO due to their limited water solubility. […] The inhibitory efficiency of the studied compounds was expressed by IC50 values, i.e. by molar concentration of the compounds causing 50% decrease in the oxygen evolution rate relative to the untreated control.

[5] = system: Candida tropicalis 156; test: In vitro antifungal susceptibility testing (broth microdilution); type: cell-based; settings: M27-A2 for yeasts, IC80 value
[6] = system: Trichophyton mentagrophytes 445; test: as above; type: cell-based; settings: M38-A for moulds, IC50 value, read-out: MIC TM
[7] = system: methicilin resistant Staphylococcus aureus H 5996/08; test: In vitro antibacterial susceptibility testing (broth microdilution); settings: MRSA, read-out: MIC MRSA
[8] = system: Staphylococcus aureus CCM 4516/08; test: as above; settings: read-out: MIC SA
[9] = system: Staphylococcus epidermidis H 6966/08; test: as above; settings: read-out: MIC SE
[10] = system: Mycobacterium tuberculosis MTB CNCTC My 331/88; test: In vitro antimycobacterial evaluation; type: cell-based; settings: IC90 value
[11] = system: Mycobacterium kansasii MK CNCTC My 235/80; test: In vitro antimycobacterial evaluation; type: cell-based; settings: IC90 value

SMILES: O=C(CNC(=O)c1cc(Cl)ccc1O)Nc1cccc(Cl)c1 [8a]
- MIC ([1]; SP.J14365/08, 24 h): > 250 µM
- MIC ([1]; SP.J14365/08, 48 h): > 250 µM
- log k [2]: 0.2439
- MIC ([3]; 14h): 62.5 µM (≈ 21.2 µg/mL)
- MIC ([3]; 21h): 62.5 µM (≈ 21.2 µg/mL)
- pIC50 [4]: 3.42
- MIC ([5]; 24h): 125 µM (≈ 42.4 µg/mL)
- MIC ([5]; 48h): 125 µM (≈ 42.4 µg/mL)
- MIC ([6]; 72h): 125 µM (≈ 42.4 µg/mL)
- MIC ([6]; 120h): 125 µM (≈ 42.4 µg/mL)
- MIC ([7]; 24 h): > 250 µM
- MIC ([7]; 48 h): > 250 µM
- MIC ([8]; CCM4516, 24 h): > 250 µM
- MIC ([8]; CCM4516, 48 h): > 250 µM
- MIC ([9]; H6966/08, 24 h): > 250 µM
- MIC ([9]; H6966/08, 48 h): > 250 µM
- MIC ([10]; 14h): 125 µM (≈ 42.4 µg/mL)
- MIC ([10]; 21h): 125 µM (≈ 42.4 µg/mL)
- MIC ([11]; 14h): 250 µM (≈ 84.8 µg/mL)
- MIC ([11]; 21h): 250 µM (≈ 84.8 µg/mL)

SMILES: CC(C)[C@H](NC(=O)c1ccc(Cl)cc1O)C(=O)Nc1ccc(Cl)cc1 [9c]
- MIC ([1]; SP.J14365/08, 24 h): > 500 µM
- MIC ([1]; SP.J14365/08, 48 h): > 500 µM
- log k [2]: 0.6839
- MIC ([3]; 14h): 62.5 µM (≈ 23.8 µg/mL)
- MIC ([3]; 21h): 125 µM (≈ 47.7 µg/mL)
- pIC50 [4]: 4.62
- MIC ([5]; 24h): > 125 µM
- MIC ([5]; 48h): > 125 µM
- MIC ([6]; 72h): > 125 µM
- MIC ([6]; 120h): > 125 µM
- MIC ([7]; 24 h): > 500 µM
- MIC ([7]; 48 h): > 500 µM
- MIC ([8]; CCM4516, 24 h): > 500 µM
- MIC ([8]; CCM4516, 48 h): > 500 µM
- MIC ([9]; H6966/08, 24 h): > 500 µM
- MIC ([9]; H6966/08, 48 h): > 500 µM
- MIC ([10]; 14h): 62.5 µM (≈ 23.8 µg/mL)
- MIC ([10]; 21h): 62.5 µM (≈ 23.8 µg/mL)
- MIC ([11]; 14h): 62.5 µM (≈ 23.8 µg/mL)
- MIC ([11]; 21h): 62.5 µM (≈ 23.8 µg/mL)

SMILES: CC(C)[C@H](NC(=O)c1cc(Cl)ccc1O)C(=O)Nc1ccc(Br)cc1 [8s]
- MIC ([1]; SP.J14365/08, 24 h): > 125 µM
- MIC ([1]; SP.J14365/08, 48 h): > 125 µM
- log k [2]: 0.6709
- MIC ([3]; 14h): 62.5 µM (≈ 26.6 µg/mL)
- MIC ([3]; 21h): 62.5 µM (≈ 26.6 µg/mL)
- pIC50 [4]: 4.58
- MIC ([5]; 24h): > 125 µM
- MIC ([5]; 48h): > 125 µM
- MIC ([6]; 72h): > 125 µM
- MIC ([6]; 120h): > 125 µM
- MIC ([7]; 24 h): > 125 µM
- MIC ([7]; 48 h): > 125 µM
- MIC ([8]; CCM4516, 24 h): > 125 µM
- MIC ([8]; CCM4516, 48 h): > 125 µM
- MIC ([9]; H6966/08, 24 h): > 125 µM
- MIC ([9]; H6966/08, 48 h): > 125 µM
- MIC ([10]; 14h): 62.5 µM (≈ 26.6 µg/mL)
- MIC ([10]; 21h): 62.5 µM (≈ 26.6 µg/mL)
- MIC ([11]; 14h): 62.5 µM (≈ 26.6 µg/mL)
- MIC ([11]; 21h): 125 µM (≈ 53.2 µg/mL)

SMILES: O=C(N[C@@H](Cc1ccccc1)C(=O)Nc1ccc(Br)cc1)c1cc(Cl)ccc1O [8u]
- MIC ([1]; SP.J14365/08, 24 h): > 125 µM
- MIC ([1]; SP.J14365/08, 48 h): > 125 µM
- log k [2]: 0.7779
- MIC ([3]; 14h): 250 µM (≈ 118 µg/mL)
- MIC ([3]; 21h): 250 µM (≈ 118 µg/mL)
- pIC50 [4]: 4.51
- MIC ([5]; 24h): 500 µM (≈ 237 µg/mL)
- MIC ([5]; 48h): > 500 µM
- MIC ([6]; 72h): 500 µM (≈ 237 µg/mL)
- MIC ([6]; 120h): > 500 µM
- MIC ([7]; 24 h): > 125 µM
- MIC ([7]; 48 h): > 125 µM
- MIC ([8]; CCM4516, 24 h): > 125 µM
- MIC ([8]; CCM4516, 48 h): > 125 µM
- MIC ([9]; H6966/08, 24 h): > 125 µM
- MIC ([9]; H6966/08, 48 h): > 125 µM
- MIC ([10]; 14h): 32 µM (≈ 15.2 µg/mL)
- MIC ([10]; 21h): 32 µM (≈ 15.2 µg/mL)
- MIC ([11]; 14h): 62.5 µM (≈ 29.6 µg/mL)
- MIC ([11]; 21h): 125 µM (≈ 59.2 µg/mL)

SMILES: O=C(N[C@@H](Cc1ccccc1)C(=O)Nc1ccc(Cl)cc1)c1cc(Cl)ccc1O [8k]
- MIC ([1]; SP.J14365/08, 24 h): > 500 µM
- MIC ([1]; SP.J14365/08, 48 h): > 500 µM
- log k [2]: 0.7394
- MIC ([3]; 14h): 32 µM (≈ 13.7 µg/mL)
- MIC ([3]; 21h): 32 µM (≈ 13.7 µg/mL)
- pIC50 [4]: 4.53
- MIC ([5]; 24h): 125 µM (≈ 53.7 µg/mL)
- MIC ([5]; 48h): > 125 µM
- MIC ([6]; 72h): 125 µM (≈ 53.7 µg/mL)
- MIC ([6]; 120h): > 125 µM
- MIC ([7]; 24 h): > 500 µM
- MIC ([7]; 48 h): > 500 µM
- MIC ([8]; CCM4516, 24 h): > 500 µM
- MIC ([8]; CCM4516, 48 h): > 500 µM
- MIC ([9]; H6966/08, 24 h): > 500 µM
- MIC ([9]; H6966/08, 48 h): > 500 µM
- MIC ([10]; 14h): 16 µM (≈ 6.87 µg/mL)
- MIC ([10]; 21h): 16 µM (≈ 6.87 µg/mL)
- MIC ([11]; 14h): 32 µM (≈ 13.7 µg/mL)
- MIC ([11]; 21h): 62.5 µM (≈ 26.8 µg/mL)
